According to patent US20150105252A1, “SUBSTITUTED PYRAZOLES AS HERBICIDES” (E I DU PONT DE NEMOURS AND COMPANY, priority 2013, published 2015):

Tests used:
barnyardgrass [1] = experiment: Test B flood; type: in vivo, Echinochloa crus-galli; conditions: 250 g ai/ha, visual rating on 0 to 100 scale (0 no effect, 100 complete control), 13 to 15 days
How it was run: (§1)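 At two leaves, seedlings received the test compound via the paddy water, pots having been flooded 3 cm over the soil surface and kept so. Greenhouse-held for 13 to 15 days, then judged by eye against controls on a scale running 0 (no effect) to 100 (complete control).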

galium = experiment: Test A postemergence; type: in vivo, Galium aparine
How it was run: (§2)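 After sowing in a sand–loam mix, pots received compound preemergence by directed soil spray, or postemergence once plants reached the one- to two-leaf stage (2–10 cm). Formulation contained surfactant in a non-phytotoxic solvent. Injury was scored visually after ~10 greenhouse days, 0–100 scale.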

barnyardgrass [2] = experiment: Test A postemergence; type: in vivo, Echinochloa crus-galli
How it was run: as §2

corn = experiment: Test A postemergence; type: in vivo, Zea mays
How it was run: as §2

kochia [3] = experiment: Test A preemergence; type: in vivo, Kochia scoparia
How it was run: as §2

blackgrass = experiment: Test A postemergence; type: in vivo, Alopecurus myosuroides
Text: (§3) Seeds of plant species selected from barnyardgrass (Echinochloa crus-galli), kochia (Kochia scoparia), common ragweed (Ambrosia elation), Italian ryegrass (Lolium multiflorum), crabgrass, large (large crabgrass, Digitaria sanguinalis), foxtail, giant (giant foxtail, Setaria faberii), morningglory (Ipomoea spp.), pigweed (redroot pigweed, Amaranthus retroflexus), velvetleaf (Abutilon theophrasti), wheat (Triticum aestivum), and corn (Zea mays) were planted into a blend of loam soil and sand and treated preemergence with a directed soil spray using test chemicals formulated in a non-phytotoxic solvent mixture which included a surfactant.
(§4) At the same time, plants selected from these crop and weed species and also blackgrass (Alopecurus myosuroides), and galium (catchweed bedstraw, Galium aparine) were planted in pots containing the same blend of loam soil and sand and treated with postemergence applications of test chemicals formulated in the same manner. Plants ranged in height from 2 to 10 cm and were in the one- to two-leaf stage for the postemergence treatment. Treated plants and untreated controls were maintained in a greenhouse for approximately 10 days, after which time all treated plants were compared to untreated controls and visually evaluated for injury. Plant response ratings, summarized in Table A, are based on a 0 to 100 scale where 0 is no effect and 100 is complete control. A dash (-) response means no test result.

common ragweed [4] = experiment: Test A postemergence; type: in vivo, Ambrosia elation
Text: as §3, §4

sedge, umbrella = experiment: Test B flood; type: in vivo, Cyperus difformis; conditions: 250 g ai/ha, visual rating on 0 to 100 scale (0 no effect, 100 complete control), 13 to 15 days
How it was run: as §1

Italian ryegrass [5] = experiment: Test A preemergence; type: in vivo, Lolium multiflorum
Text: as §3, §4

Italian ryegrass [6] = experiment: Test A postemergence; type: in vivo, Lolium multiflorum
How it was run: as §2

wheat = experiment: Test A postemergence; type: in vivo, Triticum aestivum
How it was run: as §2

common ragweed [7] = experiment: Test A preemergence; type: in vivo, Ambrosia elation
Text: as §3, §4

foxtail, giant [8] = experiment: Test A preemergence; type: in vivo, Setaria faberii; conditions: preemergence
How it was run: as §2

pigweed [9] = experiment: Test A postemergence; type: in vivo, Amaranthus retroflexus
How it was run: as §2

foxtail, giant [10] = experiment: Test A postemergence; type: in vivo, Setaria faberii
How it was run: as §2

pigweed [11] = experiment: Test A preemergence; type: in vivo, Amaranthus retroflexus; conditions: preemergence
How it was run: as §2

ducksalad = experiment: Test B flood; type: in vivo, Heteranthera limosa; conditions: 250 g ai/ha, visual rating on 0 to 100 scale (0 no effect, 100 complete control), 13 to 15 days
How it was run: as §1

kochia [12] = experiment: Test A postemergence; type: in vivo, Kochia scoparia
How it was run: as §2

barnyardgrass [13] = experiment: Test A preemergence; type: in vivo, Echinochloa crus-galli; conditions: preemergence
How it was run: as §2

rice = experiment: Test B flood; type: in vivo, Oryza sativa; conditions: 250 g ai/ha, visual rating on 0 to 100 scale (0 no effect, 100 complete control), 13 to 15 days
How it was run: as §1

[14] = Postemergence, 500 g ai/ha, 0 to 100 scale (0 no effect, 100 complete control)
[15] = postemergence, 125 g ai/ha, about 10 days, visual rating on 0 to 100 scale (0 no effect, 100 complete control)
[16] = 125 g ai/ha, visual injury, 0 to 100 scale, approx. 10 days
[17] = 500 g ai/ha, visual injury after approx. 10 days, 0 to 100 scale (0 no effect, 100 complete control)

Structure (SMILES)	Plant response rating, Barnyardgrass (barnyardgrass [1])	Galium plant response rating (galium; [14])	Galium plant response rating (galium; [15])	Barnyardgrass plant response rating (barnyardgrass [2]; [14])	Barnyardgrass plant response rating (barnyardgrass [2]; [15])	Corn plant response rating (corn; [14])	Corn plant response rating (corn; [15])	Kochia plant response rating (kochia [3]; [16])	Kochia plant response rating (kochia [3]; [17])	Blackgrass plant response rating (blackgrass; [14])	Blackgrass plant response rating (blackgrass; [15])	Common Ragweed plant response rating (common ragweed [4]; [14])	Common Ragweed plant response rating (common ragweed [4]; [15])	Plant response rating, Sedge, Umbrella (sedge, umbrella)	Italian Ryegrass plant response rating (Italian ryegrass [5]; [16])	Italian Ryegrass plant response rating (Italian ryegrass [5]; [17])	Italian Ryegrass plant response rating (Italian ryegrass [6]; [14])	Italian Ryegrass plant response rating (Italian ryegrass [6]; [15])	Wheat plant response rating (wheat; [14])	Wheat plant response rating (wheat; [15])	also measured
CCCNC(=O)c1cc(CC)n(Cc2cc(OC(F)F)nn2C)n1 [Compound 134]	0	70	30	30	10	30	10	80	100	50	10	30	20	0	0	10	10	0	10	0	Common Ragweed plant response rating (common ragweed [7]; [16]): 10; Common Ragweed plant response rating (common ragweed [7]; [17]): 80; Foxtail, Giant plant response rating (foxtail, giant [8]; [16]): 20; Foxtail, Giant plant response rating (foxtail, giant [8]; [17]): 100; Pigweed plant response rating (pigweed [9]; [14]): 90; Pigweed plant response rating (pigweed [9]; [15]): 40; Foxtail, Giant plant response rating (foxtail, giant [10]; [14]): 70; Foxtail, Giant plant response rating (foxtail, giant [10]; [15]): 10; Pigweed plant response rating (pigweed [11]; [16]): 20; Pigweed plant response rating (pigweed [11]; [17]): 100; Plant response rating, Ducksalad (ducksalad): 0; Kochia plant response rating (kochia [12]; [14]): 90; Kochia plant response rating (kochia [12]; [15]): 60; Barnyardgrass plant response rating (barnyardgrass [13]; [16]): 0; Barnyardgrass plant response rating (barnyardgrass [13]; [17]): 90; Plant response rating, Rice (rice): 0
CCCCNC(=O)c1cc(CC)n(Cc2cc(OC(F)F)nn2C)n1 [Compound 135]	0	50	20	10	10	20	10	70	100	20	0	30	10	0	0	0	0	0	0	0	Common Ragweed plant response rating (common ragweed [7]; [16]): 0; Common Ragweed plant response rating (common ragweed [7]; [17]): 0; Foxtail, Giant plant response rating (foxtail, giant [8]; [16]): 0; Foxtail, Giant plant response rating (foxtail, giant [8]; [17]): 50; Pigweed plant response rating (pigweed [9]; [14]): 40; Pigweed plant response rating (pigweed [9]; [15]): 10; Foxtail, Giant plant response rating (foxtail, giant [10]; [14]): 10; Foxtail, Giant plant response rating (foxtail, giant [10]; [15]): 0; Pigweed plant response rating (pigweed [11]; [16]): 0; Pigweed plant response rating (pigweed [11]; [17]): 50; Plant response rating, Ducksalad (ducksalad): 0; Kochia plant response rating (kochia [12]; [14]): 100; Kochia plant response rating (kochia [12]; [15]): 70; Barnyardgrass plant response rating (barnyardgrass [13]; [16]): 0; Barnyardgrass plant response rating (barnyardgrass [13]; [17]): 0; Plant response rating, Rice (rice): 0
